Data taken from patent US6316594A, “Antimicrobial peptide isolated from parasilurus asotus and its uses” (priority 1998, dated 2001).
Peptide text beside a SMILES is read from it.

Legend:
human erythrocytes = test: Hemolytic activity assay; conditions: peptide 200 μg/ml
Description: The hemolytic activity of the antimicrobial peptide was assayed as described by Park et al. (9).

[1] = test system: Bacillus subtilis ATCC 62037; test: MIC, microdilution in 96-well plate; type: cell-based; conditions: overnight 37° C., 3% TSB
Text: (§1) All of the microorganisms used in the invention were obtained from the American Type Culture Collection (ATCC) Used were Bacillus subtilis ATCC 62037, Staphylococcus aureus ATCC 15752, Streptococcus mutans ATCC 25175, Pseudomonas putida ATCC 17426, Escherichia coli ATCC 27325, Salmonella typhimurium ATCC 15277, Seratia sp. ATCC 21074, Cryptococcus neoformans ATCC 34881, Saccharomyces cerevisiae ATCC 44774 and Candida albicans ATCC 10231.
(§2) The parasin I and its derivatives obtained in Example I were lyophilized, resuspended in water and assayed for antimicrobial activity against B. subtilis ATCC 62037. The purity of the isolated peptides was analyzed by reverse-phase HPLC and MALDI-MS (Kratos Kompact MALDI, England). The antimicrobial activity of the samples was determined during each purification step by the radial diffusion assay using B. subtilis ATCC 62037 according to the method of Lehrer et al. ((1991) J. Immunol. Methods, 137, 167-173). A 20 ml culture of B. subtilis ATCC 62037 cell in mid-logarithmic phase was washed with 10 mM sodium phosphate buffer (NAPB), pH 7.4, at […], and resuspended in 10 ml of the same buffer. A cell suspension containing 1×10^6 bacterial colony forming units (CFUs) was added to 6 ml of an underlayer agar (10 mM sodium phosphate, 1% (v/v) trypticase soy broth (TSB), 1% (w/v) agarose, pH 6.5) and this resulting mixture was poured into a Petri dish. Samples were added, at an amount of 5 μl, directly in 3-mm wells which were made on the solidified underlayer agar. After incubation for 3 hours at 37° C., the underlayer agar was covered with a nutrient-rich top agar overlay (6% (w/v) TSB, 1% (w/v) agarose) and incubated overnight at 37° C. Antimicrobial activity was determined by observing the zone of suppression of bacterial growth around the 3-mm wells. The minimal inhibitory concentrations (MICs) of the isolated peptide against the microorganisms were determined as described by Moore et al. ((1991) J. Biol. Chem., 266, 19851-19857). 100 μl microorganism suspensions (10^5 CFU/ml) in 3% (w/v) TSB were mixed with serial two-fold dilutions of the isolated peptide in a sterilized 96-well microtiter plate (Nunc, Denmark). The final concentration of the peptide ranged 0.5-200 μg/ml. The 96-well plate was incubated overnight at 37° C. and the inhibition of growth was determined by measuring the absorbance at 620 nm on a microplate reader, such as that sold by B10-Rad, U.S.A., under the brand name of Model 550. The MIC was defined as the lowest concentration of peptide that inhibited growth. In respect to the test for antimicrobial activity, 10 different microorganisms, including Gram-negative bacteria, Gram-positive bacteria and fungi were used.

[2] = test system: Candida albicans ATCC 10231; test: MIC, microdilution in 96-well plate; type: cell-based; conditions: overnight 37° C., 3% TSB
Text: as §1, §2

[3] = test system: Cryptococcus neoformans ATCC 34881; test: MIC, microdilution in 96-well plate; type: cell-based; conditions: overnight 37° C., 3% TSB
Text: as §1, §2

[4] = test system: Escherichia coli ATCC 27325; test: MIC, microdilution in 96-well plate; type: cell-based; conditions: overnight 37° C., 3% TSB
Text: as §1, §2

[5] = test system: Pseudomonas putida ATCC 17426; test: MIC, microdilution in 96-well plate; type: cell-based; conditions: overnight 37° C., 3% TSB
Text: as §1, §2

[6] = test system: Saccharomyces cerevisiae ATCC 44774; test: MIC, microdilution in 96-well plate; type: cell-based; conditions: overnight 37° C., 3% TSB
Text: as §1, §2

[7] = test system: Salmonella typhimurium ATCC 15277; test: MIC, microdilution in 96-well plate; type: cell-based; conditions: overnight 37° C., 3% TSB
Text: as §1, §2

Serratia sp. = test: MIC, microdilution in 96-well plate; type: cell-based; conditions: overnight 37° C., 3% TSB
Text: as §1, §2

[8] = test system: Staphylococcus aureus ATCC 15752; test: MIC, microdilution in 96-well plate; type: cell-based; conditions: overnight 37° C., 3% TSB
Text: as §1, §2

[9] = test system: Streptococcus mutans ATCC 25175; test: MIC, microdilution in 96-well plate; type: cell-based; conditions: overnight 37° C., 3% TSB
Text: as §1, §2

| Compound | hemolysis (human erythrocytes) [%] | MIC [1] [µg/mL] | MIC [2] [µg/mL] | MIC [3] [µg/mL] | MIC [4] [µg/mL] | MIC [5] [µg/mL] | MIC [6] [µg/mL] | MIC [7] [µg/mL] | MIC (Serratia sp.) [µg/mL] | MIC [8] [µg/mL] | MIC [9] [µg/mL] |
| --- | --- | --- | --- | --- | --- | --- | --- | --- | --- | --- | --- |
| CC(C)[C@H](NC(=O)[C@H](CCCCN)NC(=O)CNC(=O)CNC(=O)[C@H](CCC(N)=O)NC(=O)[C@H](CCCCN)NC(=O)CNC(=O)[C@H](CCCNC(=N)N)NC(=O)CNC(=O)[C@@H](N)CCCCN)C(=O)N[C@@H](CCCNC(=N)N)C(=O)N[C@@H](C)C(=O)N[C@@H](CCCCN)C(=O)N[C@@H](C)C(=O)N[C@@H](CCCCN)C(=O)N[C@H](C(=O)N[C@@H](CCCNC(=N)N)C(=O)N[C@@H](CO)C(=O)N[C@@H](CO)C(=O)O)[C@@H](C)O [Parasin I, Lys-Gly-Arg-Gly-Lys-Gln-Gly-Gly-Lys-Val-Arg-Ala-Lys-Ala-Lys-Thr-Arg-Ser-Ser] (H-KGRGKQGGKVRAKAKTRSS-OH) | 0.2 |  |  |  |  |  |  |  |  |  |  |
| Buforin I [reference compound] |  | 4 | 4 | 4 | 8 | 4 | 4 | 4 | 8 | 4 | 8 |
| K G R G K Q G G K V R A K A K (KGRGKQGGKVRAKAK) [Seq. No. 3, synthetic derivative deficient of 4 carboxyl terminal residues of parasin I] |  | 1 | 4 | 2 | 1 | 2 | 2 | 2 | 4 | 2 | 1 |
| K G R G K Q G G K V R A K A K T R (KGRGKQGGKVRAKAKTR) [Seq. No. 2, synthetic derivative deficient of 2 carboxyl terminal residues of parasin I] |  | 0.5 | 1 | 1 | 0.5 | 2 | 2 | 1 | 2 | 1 | 0.5 |
| K G R G K Q G G K V R A K A K T R S S (KGRGKQGGKVRAKAKTRSS) [Seq. No. 1] |  | 0.5 | 1 | 1 | 0.5 | 2 | 1 | 1 | 4 | 1 | 0.5 |
| Magainin 2 [reference compound] |  | 50 | 25 | 12 | 100 | 50 | 25 | 25 | 50 | 50 | 100 |
